Laboratory results taken from patent US9440966B2, “Compounds for treatment of metabolic syndrome” (SJT MOLECULAR RESEARCH, S.L., priority 2011, dated 2016).

Assays:
SHR hypertensive rats = assay: Plasma cholesterol levels test in SHR hypertensive rats; type: in vivo, Male SHR; settings: 25 days of treatment (15 mg/Kg) oral, effect more pronounced for 5a and 7a
Procedure: (§1) Distinct rat groups were orally treated, once a day, with 5 mg/kg of compounds 4a or 5a or 6a during the first 4 days, 10 mg/kg during the next 4 days and 15 mg/kg until the end of the treatment period or vehicle (control) for the same days. Similarly, another rat group received metformin (MET) (reference drug used for lowering glucose serum levels) in a 300 mg/kg dose, orally, from day 1 to the end of the treatment. Plasma cholesterol levels were measured in triplicate 12 hours after drug administration by the cholesterol oxidase/peroxidase method (BioSystems S.A, Barcelona, Spain). Blood samples were obtained by femoral vein punction. This method was chosen because of its noninvasive character, enabling daily measurements with the same rats throughout the entire treatment.
(§2) Male SHR were provided by Charles River Laboratories (USA). Until the experiments were carried out, the animals have had free access to feed and water. The room temperature was kept at 22±2° C. and the light/dark cycle was of 12 hours. All procedures were submitted to the Animal Experimentation Ethics Committee.
as §1, with “metformin” for “metformin (MET)”, “Blood pressure was” for “Plasma cholesterol levels were”, “4” for “12”, “administration in warmed warmed, restrained, conscious rats” for “administration”, “tail-cuff” for “cholesterol oxidase/peroxidase”, “with a computerized oscillometric system recorder (Nyprem, Cibertec).” for “(BioSystems S.A, Barcelona, Spain). Blood samples were obtained by femoral vein punction.”

[1] = Body weight in SHR hypertensive rats; type: in vivo, Male SHR; settings: oral once a day 5, 10 then 15 mg/kg
Procedure: as §2
Distinct rat groups were orally treated, once a day, with 5 mg/kg of compound 5a during the first 4 days, 10 mg/kg during the next 4 days and 15 mg/kg until the end of the treatment period or vehicle (control) for the same days. Similarly, another rat group received metformin (reference drug used for lowering glucose serum levels) in a 300 mg/kg dose, orally, from day 1 to the end of the treatment. Rats were weighted in a CHYO MK2000B precision weight chamber.

[2] = tested on: Drosophila melanogaster (Oregon-R strain); assay: Toxicology study: larva-to-adult viability and development time; settings: in vivo
Source text: The purpose of this study was to test and compare the potential toxic effects of compounds 5a, 6a and 7a on the larva-to-adult viability and development time in a Drosophila melanogaster (Oregon-R) flies. These studies have a relevant predictive role with the aim to anticipate possible adverse toxicological effects that may happen during preclinical studies with animal, preferably mammals. In addition, the data provided are highly quantitative.
Drosophila melanogaster (Oregon-R) flies were obtained by the University of the Balearic Islands (Spain). […] The larvae were seeded on standard food supplemented with the appropriate dose of compounds tested. Each compound was tested at 1, 10, 100, 1000 and 2000 μg/ml dissolved in standard food.
Fly adults were transferred from the serial transfer system to bottles with fresh food for 24 h. Adults 5 days old were placed on egg collecting devices (layers) containing a mixture of agar, water, acetic acid, and ethyl alcohol, with a drop of active yeast on it. Every 2 h., the layer glasses were changed, in this way, the eggs of a glass have similar age, with a maximum difference of 2 h. among them. The glasses of the layers were kept at 25° C. for at least 22 h. in Petri dishes until larvae hatched. Fifty larvae were picked with a lancet under a stereoscopic microscope and were seeded into 10×2 cm vials with 5 ml food. Vials were supplemented with 4a, 5a and 7a at 1, 10 and 100 μg/ml. As positive control we used cupric acetate (toxic) at 350 μg/ml.
The number of adult flies which emerged from each vial was counted daily until the exhaustion of the culture. The parameters studied were the larvae-to-adult viability (V) and development time.
Viability is expressed as V=NA/NL, where NL is the input number of larvae ([…] in our case) and NA the output number of adults emerging from these NL larvae. Development time was measured in days by the formula DT=ΣNidi/ΣNi where Ni is the number of flies emerging on the day di after the larvae were placed in the medium.
The data are expressed as the mean±SEM values from 3 independent experiments involving triplicate vials at the number of flies indicated.

female Swiss mice = assay: Acute oral toxicology study in a mice model; type: in vivo; settings: oral 2000 mg/kg single dose, observation for 14 days
Procedure: The experiments were conducted using female Swiss mice (20-30 g), housed under a 12-h light-dark cycle, with controlled humidity (60-80%), and temperature (22±1° C.). Food and water were freely available to the mice.
Female mice (n=6) were orally (2000 mg/kg) administered with a single dose of 4a, 5a, and 7a for the observation of acute signs of toxicity until 14 days. […] The observations comprised the behavior and manifestations of the toxic symptoms, and were carried out according to the Guidelines of the Organization for Economic Cooperation and Development (OECD, 2008).
All compounds were dissolved in sterile saline and were administered by oral gavage to mice based in the weight, for example 20 g received 20 μL.
The data are expressed as mean±S.E.M. of experiments. Statistical significance was determined through one-way analysis of variances (ANOVA), followed by either Newman-Keuls test. A p<0.05 was considered statistically significant. Graphs were drawn and statistical analysis was carried out using GraphPad Prism version 5.00 for Windows (GraphPad Software, San Diego, Calif., USA).

Compound: COc1ccc(-c2nc(C(=O)NCCCN)cc3c2[nH]c2ccccc23)cc1 [Compound 5a, N(-propylamine)-1-benzosubstituted-β-carboline-3-carboxamide]
- plasma cholesterol levels (SHR hypertensive rats): inhibition of plasma cholesterol levels
- SHR body weight compared to control untreated rats [1]: statistically significant effect in lowering SHR body weight
- larvae-to-adult viability and development time [2]: not affected
- mortality or behavioral disorders (acute signs of toxicity) (female Swiss mice): did not produce mortality or any behavioral disorders
